Patent US8193333B2, “Cancer therapy using Bcl-Xl-specific siNA” (Centre Regional de Lutte Contre le Cancer-Centre Francois …, priority 2006, dated 2012)

Tested on: SKOV3 cells
Experiment: Cell mortality, viability, growth and cell cycle of SKOV3 cells (morphology, trypan blue exclusion, FACS of DNA content)
Format: cell-based, human
Description: Exponentially growing cells were exposed to CDDP for 2 hours at 37° C., in serum free medium. After exposure to the drug, the cell layers were rinsed and incubated in complete growth medium.
The siRNA duplexes were transfected according to the recommended procedure by using the Oligofectamine Reagent and Opti-MEM medium (INVITROGEN LIFE TECHNOLOGIES). 30-40% confluent cells were transfected in 25 cm^2 flasks with different concentrations of siXL1, siRNA Mcl-1 or siRNA control and incubated at 37° C., 5% CO2 for 4 hours. Next, 20% fetal bovin serum was added to reach a final concentration of 10% foetal bovin serum in the 25 cm^2 flask.
After treatment, detached cells were collected separately and adherent cells were dissociated by trypsin/EDTA. Adherent and detached cells were then pooled and centrifuged at 1500×g for 5 min before being fixed in 70% ethanol. The cells were then collected on a polylysine-coated glass slide by cytocentrifugation, before a 30 min room temperature incubation in a 1 μg/ml DAPI aqueous solution (BOEHRINGER MANNHEIM). Slides were thereafter extensively washed in distilled water and mounted in Mowiol (CALBIO-CHEM).
After treatment, detached cells were collected separately. Adherent cells were then harvested by trypsin/EDTA dissociation. Adherent and detached cells were then pooled and washed in PBS before being fixed in 70% ethanol and stored at −20° C. until analysis. Before flow cytometry analysis, the cells were washed in PBS and incubated for 30 min at room temperature in PBS in order to allow the release of low molecular weight (m.w.) DNA, characteristic of apoptotic cells. After a centrifugation at 4000 g for 10 min, the cell pellets were resuspended and stained with propidium iodide (PI) using the DNA Prep Coulter Reagent Kit (BECKMAN-COULTER) at a final concentration of 10^6 cells/ml.
Samples were analyzed using an EPICS XL flow cytometer (BECKMAN COULTER) equipped with an argon laser at 15 mW. PI-stained cells were analyzed using a 488 mn excitation. A 620 nm band pass filter was put on the red fluorescence of PI. Computerized gating was applied on the side and forward scatter to exclude very small debris and on pulse width and integral peak of red fluorescence to eliminate aggregates. All samples were analyzed at a flow rate lower than 100 events per second and with a sheath pressure of 30 psi.

siXL1: double-stranded siRNA blocking Bcl-XL expression; sense 5′-auuggugagucggaucgcatt-3′ (SEQ ID NO: 5), anti-sense 5′-ugcgauccgacucaccaautt-3′ (SEQ ID NO: 6) (sense AUUGGUGAGUCGGAUCGCATT; antisense UGCGAUCCGACUCACCAAUTT; chemistry not given here)
cytotoxic effect on SKOV3 cells (50 nM each siRNA, absence of cisplatin, FIG. 12): no cytotoxic effect | cytotoxic effect of each siRNA (SKOV3 cells, FIGS. 13 and 14): slight cytoxic effect | cell viability (trypan blue exclusion) (SKOV3 cells, alone 150 nM or in combination 75 nM each, FIGS. 13 and 14): reduction of cell viability | cell death (morphology, FACS analysis of the cell cycle) (SKOV3 cells, cisplatin 5 or 20 μg/ml, siRNA 150 nM): moderate cell death by apoptosis
